According to patent US20260053811A1, “METHODS OF TREATING HYPERTENSION IN OBESE SUBJECTS” (Mineralys Therapeutics, Inc., priority 2022, published 2026):

System: hypertensive subjects
Test: Seated automated office blood pressure (AOBP) in randomized, placebo-controlled, dose-ranging study
Assay type: in vivo, human
Conditions: Part 1
Protocol: A randomized, double-blinded, placebo-controlled, dose-ranging, multicenter study was conducted to evaluate the effect of orally administered Compound A HBr on blood pressure for the treatment of hypertension in male and female subjects ≥18 years of age.
The study consists of two parts. For enrollment into Part 1 of the study, a subject's value of plasma renin activity (PRA) must be ≤1 ng/mL/h based on morning measurement. If the value of PRA >1 ng/mL/h based on morning measurement, then subjects may be eligible to enter Part 2 of the study.
For Part 1, 163 enrolled subjects ≥18 years of age were randomized into 6 equal treatment groups (1:1:1:1:1:1) to 12.5 mg BID, 25 mg BID, 12.5 mg QD, 50 mg QD, 100 mg QD, or placebo. After a review of interim clinical data, the 2 lowest dose levels (12.5 mg QD and 12.5 mg BID) were stopped for future randomization due to a lack of consistent meaningful reduction of blood pressure, but the patients randomized to that point remained in the study through completion. Thus, after the review of interim clinical data, subjects were randomized into 4 equal treatment groups (1:1:1:1) to 25 mg BID, 50 mg QD, 100 mg QD, or placebo.
For Part 2, 36 enrolled subjects ≥18 years of age were randomized (5:1) to either 100 mg QD Compound A HBr or placebo such that the Compound A HBr treatment group consisted of approximately 30 subjects and the placebo treatment group will consist of approximately 6 subjects.
Subjects orally administered the assigned study drug (Compound A HBr or placebo) according to the assigned dosing regimen for 8 weeks beginning on Study Day 1. All subjects in Part 1 (regardless of dosing group) received BID dosing to preserve the integrity of the blind; active drug is administered as the morning dose for all QD dose groups. Subjects returned to the research facility or were seen by the clinical investigator or approved home health care professional at the end of Study Weeks 1, 2, 3, 4, 5, 6, 7, and 8 (±2 days) for protocol-defined efficacy and safety assessments and procedures, assessment of adverse events (AEs), and confirmation of compliance with study drug usage. Subjects also completed a telephone visit and blood pressure (BP) check at home approximately 3 days post last dose of study drug. Subjects attended up to 14 full clinic visits, including a pre-Screening visit, a Screening/start of Placebo Run-in visit, a second visit during Placebo Run-in, a clinic visit to initiate the ABPM procedure, a Randomization visit, 8 weekly visits during double-blind treatment, and an end-of-study visit scheduled 4 weeks after the last study treatment for final efficacy and safety assessments.
An automated oscillometric sphygmomanometer device was used to measure the subjects' systolic and diastolic blood pressure in office after approximately 5 minutes of rest in the seated position.
The primary endpoint is the change in office-measured (mean of last 2 of 5 unattended measurements using an automated oscillometric sphygmomanometer device after approximately 5 minutes of rest in the seated position) systolic blood pressure (SBP) from baseline to the end of Study Week 8.
Secondary endpoints of this study were: • (a) Change in 24-hour ambulatory blood pressure monitoring (ABPM) parameters (systolic and diastolic) from baseline to the end of Study Week 7. • (b) Change in office-measured SBP from baseline to the end of Study Weeks 1, 2, 3, 4, 5, 6, and 7. • (c) Change in office-measured diastolic blood pressure (DBP) from baseline to the end of Study Weeks 1, 2, 3, 4, 5, 6, 7, and 8. • (d) Proportion of subjects who achieve office-measured BP of ≤130/80 mm Hg by the end of Study Week 8.

[1] = 12.5 mg QD, Systolic Blood Pressure Tertile at Baseline Low
[2] = 12.5 mg QD, Systolic Blood Pressure Tertile at Baseline Middle
[3] = 12.5 mg QD, Thiazide Diuretic Use at Baseline No
[4] = 12.5 mg QD, Thiazide Diuretic Use at Baseline Yes

CC(=O)N[C@H]1CC[C@H](NC(=O)CN2CCN(c3nncc(-c4ccc(C)cc4)n3)CC2)CC1 [Compound A HBr]
Mean (SD) Change from Baseline at Week 8 in Automated Office-Measured Systolic Blood Pressure (12.5 mg QD, Systolic Blood Pressure Tertile at Baseline High): −10.83 (23.91) mmHg
Mean (SD) Automated Office-Measured Systolic Blood Pressure at Wk 8 [1]: 131.17 (12.77) mmHg
Mean (SD) Change from Baseline at Week 8 in Automated Office-Measured Systolic Blood Pressure [1]: −3.75 (13.24) mmHg
Mean (SD) Automated Office-Measured Systolic Blood Pressure at Wk 8 [2]: 143.33 (22.23) mmHg
Mean (SD) Change from Baseline at Week 8 in Automated Office-Measured Systolic Blood Pressure [2]: −1.17 (21.80) mmHg
Automated Office-Measured Diastolic Blood Pressure, Week 8, Mean (SD) [3]: 88.11 (21.40) mmHg
Mean (SD) Automated Office-Measured Systolic Blood Pressure at Wk 8 [3]: 149.11 (26.02) mmHg
Mean (SD) Change from Baseline at Week 8 in Automated Office-Measured Diastolic Blood Pressure [3]: 1.56 (17.70) mmHg
Mean (SD) Change from Baseline at Week 8 in Automated Office-Measured Systolic Blood Pressure [3]: −5.83 (25.10) mmHg
Automated Office-Measured Diastolic Blood Pressure, Week 8, Mean (SD) [4]: 74.78 (8.58) mmHg
Mean (SD) Automated Office-Measured Systolic Blood Pressure at Wk 8 [4]: 132.44 (14.02) mmHg
Mean (SD) Change from Baseline at Week 8 in Automated Office-Measured Diastolic Blood Pressure [4]: −5.11 (6.26) mmHg
Mean (SD) Change from Baseline at Week 8 in Automated Office-Measured Systolic Blood Pressure [4]: −7.89 (14.31) mmHg
Mean (SD) Automated Office-Measured Systolic Blood Pressure at Wk 8 (25 mg BID, ACEi/ARB No): 123.67 (28.36) mmHg
Mean (SD) Change from Baseline at Week 8 in Automated Office-Measured Systolic Blood Pressure (25 mg BID, ACEi/ARB No): −19.17 (12.25) mmHg
Mean (SD) Automated Office-Measured Systolic Blood Pressure at Wk 8 (25 mg BID, ACEi/ARB Yes): 132.20 (15.32) mmHg
Mean (SD) Change from Baseline at Week 8 in Automated Office-Measured Systolic Blood Pressure (25 mg BID, ACEi/ARB Yes): −9.04 (14.04) mmHg
Mean (SD) Automated Office-Measured Diastolic Blood Pressure at Wk 8 (25 mg BID, ACEi/ARBs No): 68.67 (8.33) mmHg
Mean (SD) Change from Baseline at Week 8 in Automated Office-Measured Diastolic Blood Pressure (25 mg BID, ACEi/ARBs No): −10.33 (13.25) mmHg
Mean (SD) Automated Office-Measured Diastolic Blood Pressure at Wk 8 (25 mg BID, ACEi/ARBs Yes): 76.24 (13.40) mmHg
Mean (SD) Change from Baseline at Week 8 in Automated Office-Measured Diastolic Blood Pressure (25 mg BID, ACEi/ARBs Yes): −2.88 (11.56) mmHg
Mean (SD) Automated Office-Measured Diastolic Blood Pressure at Wk 8 (25 mg BID, AHTs 2): 79.31 (15.91) mmHg
Mean (SD) Automated Office-Measured Systolic Blood Pressure at Wk 8 (25 mg BID, AHTs 2): 136.92 (18.45) mmHg
Mean (SD) Change from Baseline at Week 8 in Automated Office-Measured Diastolic Blood Pressure (25 mg BID, AHTs 2): −2.12 (15.46) mmHg
Mean (SD) Change from Baseline at Week 8 in Automated Office-Measured Systolic Blood Pressure (25 mg BID, AHTs 2): −6.15 (13.68) mmHg
Mean (SD) Automated Office-Measured Diastolic Blood Pressure at Wk 8 (25 mg BID, AHTs ≥3): 72.07 (9.26) mmHg
Mean (SD) Automated Office-Measured Systolic Blood Pressure at Wk 8 (25 mg BID, AHTs ≥3): 126.40 (13.57) mmHg
Mean (SD) Change from Baseline at Week 8 in Automated Office-Measured Diastolic Blood Pressure (25 mg BID, AHTs ≥3): −5.03 (7.45) mmHg
Mean (SD) Change from Baseline at Week 8 in Automated Office-Measured Systolic Blood Pressure (25 mg BID, AHTs ≥3): −13.57 (13.83) mmHg
Mean (SD) Automated Office-Measured Diastolic Blood Pressure at Wk 8 (25 mg BID, Age 65-79 yr): 74.71 (17.26) mmHg
Mean (SD) Automated Office-Measured Systolic Blood Pressure at Wk 8 (25 mg BID, Age 65-79 yr): 133.86 (19.37) mmHg
Mean (SD) Change from Baseline at Week 8 in Automated Office-Measured Diastolic Blood Pressure (25 mg BID, Age 65-79 yr): −0.46 (14.22) mmHg
Mean (SD) Change from Baseline at Week 8 in Automated Office-Measured Systolic Blood Pressure (25 mg BID, Age 65-79 yr): −7.82 (14.88) mmHg
Mean (SD) Automated Office-Measured Diastolic Blood Pressure at Wk 8 (25 mg BID, Age <65 yr): 76.54 (7.57) mmHg
Mean (SD) Automated Office-Measured Systolic Blood Pressure at Wk 8 (25 mg BID, Age <65 yr): 127.38 (13.07) mmHg
Mean (SD) Change from Baseline at Week 8 in Automated Office-Measured Diastolic Blood Pressure (25 mg BID, Age <65 yr): −6.69 (8.06) mmHg
Mean (SD) Change from Baseline at Week 8 in Automated Office-Measured Systolic Blood Pressure (25 mg BID, Age <65 yr): −12.31 (13.78) mmHg
Mean (SD) Automated Office-Measured Diastolic Blood Pressure at Wk 8 (25 mg BID, Age ≥80 yr): 71.00 (NE) mmHg
Mean (SD) Automated Office-Measured Systolic Blood Pressure at Wk 8 (25 mg BID, Age ≥80 yr): 146.00 (NE) mmHg
Mean (SD) Change from Baseline at Week 8 in Automated Office-Measured Diastolic Blood Pressure (25 mg BID, Age ≥80 yr): −9.50 (NE) mmHg
Mean (SD) Change from Baseline at Week 8 in Automated Office-Measured Systolic Blood Pressure (25 mg BID, Age ≥80 yr): −14.00 (NE) mmHg
Mean (SD) Automated Office-Measured Diastolic Blood Pressure at Wk 8 (25 mg BID, BMI 25−30 kg/m^2): 78.89 (20.58) mmHg
Mean (SD) Change from Baseline at Week 8 in Automated Office-Measured Diastolic Blood Pressure (25 mg BID, BMI 25−30 kg/m^2): 1.11 (16.18) mmHg
Mean (SD) Automated Office-Measured Diastolic Blood Pressure at Wk 8 (25 mg BID, BMI <25 kg/m^2): 69.25 (9.50) mmHg
Mean (SD) Change from Baseline at Week 8 in Automated Office-Measured Diastolic Blood Pressure (25 mg BID, BMI <25 kg/m^2): −8.25 (7.63) mmHg
Mean (SD) Automated Office-Measured Diastolic Blood Pressure at Wk 8 (25 mg BID, BMI >30 kg/m^2): 75.00 (6.97) mmHg
